Counter-ions that a name gives are not always drawn. Where a SMILES comes first, the peptide text is derived from it.
Experiments:
Type in all cases: cell-based
COL3A1 = test: In vitro efficacy in semi-activated LX2 cells, qPCR: COL3A1; details: 48 hours, Q-PCR; for inhibition at 50 µM: Homo sapiens, LX-2, 50 µM, read-out: COL3A1 mRNA inhibition rate; for COL3A1 mRNA inhibition rate: 50 µM
Procedure: (§1) Test compounds were added to the LX-2 cells respectively, and total RNA in the cells was extracted 48 hours later. This experiment was performed strictly in accordance with the instructions of the Total RNA Kit. The steps were as follows (note: this experiment was performed on ice throughout the entire process, and special RNase-free tips were used throughout the entire process): • 1) The 12-well cell culture plate was taken out from the incubator, the cell culture medium was discarded, the cells were washed twice with 1 mL of 1×PBS, and a negative pressure suction device was used to fully remove PBS; • 2) 350 μL of TRK Lysis Buffer mixture/well was prepared as needed (mixture preparation method: 1 mL of TRKLysis Buffer+20 μL of β-mercaptoethanol), vortexed and mixed well. 350 μL was added to each well of the 12-well cell culture plate, and allowed to stand at room temperature for 5 minutes to fully lyse the cells; • 3) 70% ethanol/well was prepared as needed, vortexed and mixed well. 350 μL was added to each well of the 12-well cell culture plate, mixed well by shaking, and transferred to the spin column (spin column+collection tube were assembled); • 4) Centrifugation was performed at 4° C., 12000 g for 60 sec. The waste liquid was discarded after centrifugation, while the spin column was kept; • 5) 500 μL of RNA Wash Buffer I was added, centrifuged at 4° C., 12000 g for 60 sec, the waste liquid was discarded after centrifugation, and the collection column was kept; • 6) 500 μL of RNA Wash Buffer II (confirmed that ethanol had been added) was added, centrifuged at 4° C., 12000 g for 60 sec, the waste liquid was discarded after centrifugation, and the collection column was kept; • 7) step 6) was repeated once again, centrifugation was performed at 4° C., 12000 g for 90 sec, the waste liquid was discarded after centrifugation, and the collection column was kept; • 8) Centrifugation was performed at 4° C., 12000 g for 120 sec to ensure that the spin column was fully dried; • 9) The dried spin column was inserted into a new 1.5 mL EP tube, and 30 μL of DEPC water was added to the membrane in the center of the spin column. It should be careful not to touch the EP tube cover in this step. It was allowed to stand at room temperature for 5 minutes to ensure that the RNA was fully dissolved in DEPC water. Centrifugation was performed at 4° C., 12000 g for 60 sec, and the EP tube was kept; • 10) NanoDrop ultra-micro-volume spectrophotometer was used to detect RNA concentration;
(§2) 5.2 Reverse transcription of RNA into cDNA: According to the instructions of PrimeScript™ RT reagent Kit (Perfect Real Time), the specific experimental steps were as follows:
(§3) 5.3 Q-PCR detection of target gene expression: According to the instructions of Power SYBR® Green PCR Master Mix, the specific operations were as follows:
(§4) After the reaction was completed, the amplification curve and dissolution curve of Q-PCR were confirmed, and the relative quantification method ([…]) was used to perform data analysis on the experimental results.
(§5) LX2 cells were passaged and plated normally. […] After 48 hours, the cells were collected, total RNA was extracted, and Q-PCR was used to detect the changes in the mRNA expression levels of liver fibrosis-related genes (ACTA2 encoding α-SMA, COL1A1 and COLIA2 encoding collagen I, COL3A1 encoding collagen III, SMAD3 encoding Smad3) and inflammation-related genes (IL1β encoding IL-1β, TNFα encoding TNFα) (for specific methods, see 5. Q-PCR detection of target gene expression as described above). α-SMA was a marker of hepatic stellate cell activation, and collagen I and collagen III were the main components of extracellular matrix deposition.

IL-1β = test: In vitro efficacy in semi-activated LX2 cells, qPCR: IL-1β; details: 48 hours, Q-PCR; for inhibition at 50 µM: Homo sapiens, LX-2, 50 µM, read-out: IL-1β mRNA inhibition rate; for IL-1β mRNA inhibition rate: 50 µM
Procedure: as §1, §2, §3, §4, §5

[1] = test system: collagen I and collagen III; test: Semi-activated LX2 cells, qPCR: collagen I and collagen III at the mRNA level; details: 48 hours, Q-PCR, Table 2
Procedure: as §1, §3
LX2 cells were passaged and plated normally. After adherent growth for 12 hours, 50 µM of the test compound was added. After 48 hours, the cells were collected, total RNA was extracted, and Q-PCR was used to detect the changes in the mRNA expression levels of liver fibrosis-related genes (ACTA2 encoding α-SMA, COL1A1 and COLIA2 encoding collagen I, COL3A1 encoding collagen III, SMAD3 encoding Smad3) and inflammation-related genes (IL1β encoding IL-1β, TNFα encoding TNFα) (for specific methods, see 5. Q-PCR detection of target gene expression as described above). α-SMA was a marker of hepatic stellate cell activation, and collagen I and collagen III were the main components of extracellular matrix deposition. […]

COL1A1 = test: In vitro efficacy in semi-activated LX2 cells, qPCR: COL1A1; details: 48 hours, Q-PCR; for inhibition at 50 µM: Homo sapiens, LX-2, 50 µM, read-out: COL1A1 mRNA inhibition rate; for COL1A1 mRNA inhibition rate: 50 µM
Procedure: as §1, §2, §3, §4, §5

Smad3 = test: In vitro efficacy in semi-activated LX2 cells, qPCR: Smad3; details: 48 hours, Q-PCR; for inhibition at 50 µM: Homo sapiens, LX-2, 50 µM, read-out: Smad3 mRNA inhibition rate
Procedure: as §1, §2, §3, §4, §5

TNF-α = test: In vitro efficacy in semi-activated LX2 cells, qPCR: TNF-α; details: Q-PCR; for inhibition at 50 µM: Homo sapiens, LX-2, 48 hours, read-out: TNF-α mRNA inhibition rate
Procedure: as §1, §2, §3, §4
(§6) LX2 cells were passaged and plated normally. After adherent growth for 12 hours, 50 µM of the test compound was added. After 48 hours, the cells were collected, total RNA was extracted, and Q-PCR was used to detect the changes in the mRNA expression levels of liver fibrosis-related genes (ACTA2 encoding α-SMA, COL1A1 and COLIA2 encoding collagen I, COL3A1 encoding collagen III, SMAD3 encoding Smad3) and inflammation-related genes (IL1β encoding IL-1β, TNFα encoding TNFα) (for specific methods, see 5. Q-PCR detection of target gene expression as described above). α-SMA was a marker of hepatic stellate cell activation, and collagen I and collagen III were the main components of extracellular matrix deposition.

α-SMA = test: In vitro efficacy in semi-activated LX2 cells, qPCR: α-SMA; details: 48 hours, Q-PCR; for inhibition at 50 µM: read-out: α-SMA mRNA inhibition rate
Procedure: as §1, §2, §3, §4, §5

COL1A2 = test: In vitro efficacy in semi-activated LX2 cells, qPCR: COL1A2; details: Homo sapiens, LX-2, 48 hours, Q-PCR, read-out: COL1A2 mRNA inhibition rate
Procedure: as §1, §2, §3, §4, §6

SMILES | inhibition at 50 µM (COL3A1) | inhibition at 50 µM (IL-1β) | inhibition of the expression of collagen I and collagen III at the mRNA level [1] | inhibition at 50 µM (COL1A1) | inhibition at 50 µM (Smad3) | inhibition at 50 µM (TNF-α) | inhibition at 50 µM (α-SMA) | also measured
N[C@@H](CC(=O)OCc1ccccc1)C(=O)O [Compound 22] | 1 to 10% | 1 to 10% | could inhibit | 10 to 25% | 10 to 25% | 1 to 10% |  | inhibition of the expression of Smad3 at the mRNA level (Smad3; Table 2): could inhibit
O=CN[C@@H](CC(=O)O)C(=O)O [Compound 29] |  |  |  | 1 to 10% |  |  | 1 to 10% | inhibition at 50 µM (COL1A2): 1 to 10%
CC(=O)N[C@@H](CC(=O)OC(C)(C)C)C(=O)O [Compound 31] |  | 1 to 10% |  | 1 to 10% |  |  | 1 to 10% | 
N[C@@H](CC(=O)NCC(=O)O)C(=O)O [Compound 34] | 1 to 10% | 1 to 10% |  |  | 1 to 10% | 1 to 10% | 1 to 10% | 
CC(C)OC(=O)C[C@H](N)C(=O)O [Compound 36, 4-isopropyl L-aspartic acid ester] | 1 to 10% |  |  |  | 1 to 10% | 1 to 10% | 1 to 10% | 
O=C(O)C[C@H](NC(=O)[C@@H]1CCCN1)C(=O)O [Compound 40] (H-Pro-Asp-OH) | 25 to 50% | 1 to 10% | could inhibit | 25 to 50% | 1 to 10% | 1 to 10% |  | 
CC(C)(C)OC(=O)[C@@H](N)CC(=O)OCc1ccccc1.Cl [Compound 42] |  |  | could inhibit |  |  |  |  | COL3A1 mRNA inhibition rate (COL3A1): E (E represented that the inhibition rate was 1% to 10%); IL-1β mRNA inhibition rate (IL-1β): E (E represented that the inhibition rate was 1% to 10%); COL1A1 mRNA inhibition rate (COL1A1): C (C represented that the inhibition rate was 25% to 50%); Smad3 mRNA inhibition rate (Smad3; 50 µM): E (E represented that the inhibition rate was 1% to 10%); TNF-α mRNA inhibition rate (TNF-α; 50 µM, 48 hours): D (D represented that the inhibition rate was 10% to 25%)
COC(=O)C[C@H](N)C(=O)OC(C)(C)C.Cl [Compound 44] |  |  | could inhibit |  |  |  |  | COL3A1 mRNA inhibition rate (COL3A1): E (E represented that the inhibition rate was 1% to 10%); IL-1β mRNA inhibition rate (IL-1β): E (E represented that the inhibition rate was 1% to 10%); COL1A1 mRNA inhibition rate (COL1A1): D (D represented that the inhibition rate was 10% to 25%)
CC(C)OC(=O)OCOC(=O)[C@H](Cc1ccccc1)NC(=O)[C@@H](N)CC(=O)O [Compound 53, (S)-3-amino-4-(((S)-1-(((isopropoxycarbonyl)oxy)methoxy)-1-oxo-3-phenylpropan-2-yl)amino)-4-oxobutyric acid hydrochloride] | 10 to 25% |  | could inhibit | 10 to 25% |  |  | 10 to 25% | inhibition of the expression of α-SMA at the mRNA level (α-SMA; Table 2): could inhibit; inhibition at 50 µM (COL1A2): 1 to 10%
CC(C)C(=O)N[C@@H](CC(=O)O)C(=O)O [Compound 59, isobutyryl-L-aspartic acid] |  |  | could inhibit | 10 to 25% |  | 1 to 10% | 1 to 10% | 
CN(C)C(=O)N[C@@H](CC(=O)O)C(=O)O [Compound 62, (dimethylcarbamoyl)-L-aspartic acid] |  | 1 to 10% |  | 1 to 10% | 1 to 10% | 1 to 10% | 1 to 10% | 
